Data on three molecules can be found in US20190211072A1, “TRI-AGONIST FOR THE GLu, GLP-1 AND NPY2 RECEPTORS” (Syracuse University, priority 2018, published 2019).

The target of one experiment is T1, human NPY2R (Homo sapiens, UniProt P49146).
T1 construct: expressed in transfected cells; host or cells: HEK293-H188-C24 cells
T1 sequence (P49146 1-381): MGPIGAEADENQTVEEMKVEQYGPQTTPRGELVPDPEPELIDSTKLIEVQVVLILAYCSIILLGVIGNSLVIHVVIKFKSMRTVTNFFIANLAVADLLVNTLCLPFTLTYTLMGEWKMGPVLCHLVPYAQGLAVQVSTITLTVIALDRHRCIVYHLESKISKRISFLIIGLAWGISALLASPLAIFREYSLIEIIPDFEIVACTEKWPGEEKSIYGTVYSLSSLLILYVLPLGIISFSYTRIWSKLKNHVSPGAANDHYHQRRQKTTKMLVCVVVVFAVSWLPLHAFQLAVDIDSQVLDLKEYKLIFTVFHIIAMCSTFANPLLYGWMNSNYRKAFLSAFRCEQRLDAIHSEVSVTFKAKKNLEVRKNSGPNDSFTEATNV
The experiment in a line: cAMP-lowering action in HEK293-H188-C24 cells transfected with NPY2R (adenosine or forskolin pre-stimulation). In kind it is cell-based. Particulars: BIIE0246 2 μM; adenosine 2 μM.

The target of another experiment is GluR (UniProt P30082). The experiment in a line: LY2409021 block of GGP817 action in HEK293-GluR cells transduced with H188. It is filed as cell-based. Particulars: read-out: IC50, block of GGP817 agonist action at the GluR, GGP817 300 nM. The text has this:
(§1) It is increasingly evident that hybrid peptides have the capacity to stimulate multiple GPCRs that participate in metabolic homeostasis.
(§2) This was established by monitoring its ability to stimulate a 60% maximal ΔFRET in the cAMP assay.

The target of a further experiment is T2, GLP-1R (Homo sapiens, UniProt P43220).
T2 construct: expressed in transfected cells; host or cells: HEK293-GLP-1R cells transduced with the H188 cAMP FRET reporter
Kind of experiment: LY2409021 block of GGP817 action in HEK293-GLP-1R cells transduced with H188. In kind it is cell-based.
Excerpt: as §1, §2

Experiment [1] has as its target T3, human neuropeptide Y2 receptor (NPY2R) (human, UniProt P49146).
T3 sequence: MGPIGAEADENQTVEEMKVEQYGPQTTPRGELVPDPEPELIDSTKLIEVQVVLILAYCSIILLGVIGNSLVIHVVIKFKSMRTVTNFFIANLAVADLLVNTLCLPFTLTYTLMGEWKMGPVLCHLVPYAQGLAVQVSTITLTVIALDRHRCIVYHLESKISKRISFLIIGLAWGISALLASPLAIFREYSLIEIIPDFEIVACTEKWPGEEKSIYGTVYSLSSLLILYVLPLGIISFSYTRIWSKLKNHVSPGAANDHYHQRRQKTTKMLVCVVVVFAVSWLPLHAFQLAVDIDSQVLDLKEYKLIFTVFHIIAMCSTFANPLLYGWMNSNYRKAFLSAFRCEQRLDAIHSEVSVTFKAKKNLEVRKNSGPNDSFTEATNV
The experiment in a line: cell-based or functional assay.

T2 sequence (P43220 24-463, species assumed): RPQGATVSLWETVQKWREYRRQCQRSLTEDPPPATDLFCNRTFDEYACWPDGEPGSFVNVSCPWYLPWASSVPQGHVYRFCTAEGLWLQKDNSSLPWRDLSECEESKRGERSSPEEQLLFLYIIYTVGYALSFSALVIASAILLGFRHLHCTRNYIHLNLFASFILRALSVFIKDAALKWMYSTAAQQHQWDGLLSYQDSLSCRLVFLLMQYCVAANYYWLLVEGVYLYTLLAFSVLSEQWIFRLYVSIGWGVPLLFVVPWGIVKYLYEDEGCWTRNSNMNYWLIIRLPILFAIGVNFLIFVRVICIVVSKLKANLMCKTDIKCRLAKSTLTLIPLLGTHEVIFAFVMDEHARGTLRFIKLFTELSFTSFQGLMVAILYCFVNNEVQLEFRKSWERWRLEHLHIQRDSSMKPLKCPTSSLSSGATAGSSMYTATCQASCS

`N=C(N)NCCC[C@H](NC(=O)CC1(CC(=O)N2CCN(C3c4ccccc4NC(=O)c4ccccc43)CC2)CCCC1)C(=O)NCCn1c(=O)n(-c2ccccc2)n(-c2ccccc2)c1=O` (stereo partly shown) [BIIE0246]: at human NPY2R, the “effect of antagonist on the cAMP-lowering action of GGP817” value was “blocked”.

In the case of `Cc1cc(O[C@@H](CCC(F)(F)F)c2ccc(C(=O)NCCC(=O)O)cc2)cc(C)c1-c1ccc(C(C)(C)C)cc1` [LY2409021], the IC50 at GluR was 908 nM; against GLP-1R, 1600 nM.

On to HSQGTFTSDYSKYLDSRRAQDFVQWLMNTRHYLNLVTRQRY (C-terminal amide (-NH2)) [GGP817], for which the “EC50 of NPY2 receptor agonism (H188 FRET)” value in experiment [1] was around 3 µM.
